Laboratory results reported in US20040157280A1, “Antibody mediated ozone generation” (priority 2001, published 2004).
Entries after “also recorded” stand apart in the source; their conditions may differ.

Experiments:
E. coli = test: Bactericidal assay, E. coli (strain not singled out); assay type: cell-based; settings: for bactericidal activity (in words): HPIX 40 μM, white light 1 h, 4° C.
Procedure: (§1) In a typical experiment, a culture of E. coli (in log phase growth, OD600=0.2-0.3) was repeatedly pelleted (3×3,500 rpm) and resuspended in PBS (pH 7.4). The PBS suspended cells were then added to glass vials and cooled to 4° C. Hematoporphyrin IX (40 μM) and antibody (20 μM) were added and the vials were either placed on a light box (visible light, 2.8 mW cm^−2) or in the dark at 4° C. and incubated for 1 h. Viability was determined by recovery of colony forming units (CFUs) on agar plates. Each experiment was performed at least in duplicate.
as §1, with “washed in PBS by pelleting” for “pelleted”, “rpm) the cells” for “rpm)”, “resuspending them” for “resuspended”

human neutrophils (PMNs) = test: Oxidation of indigo carmine 1 by activated human neutrophils; assay type: cell-based; settings: indigo carmine 30 μM, PMNs 1.5×10^7 cell/mL, phorbol myristate 1 μg/mL, 37° C.
Procedure: FIG. 20A illustrates the time course of oxidation of indigo carmine 1 (30 μM) (Δ) and formation of 2 (▪) by human neutrophils (PMNs, 1.5×10^7 cell/mL) activated with phorbol myristate (1 μg/mL) in PBS (pH 7.4) at 37° C. No oxidation of indigo carmine 1 occurs with PMNs that are not activated (data not shown). Neutrophils were prepared as previously described. Hypochlorous acid (HOCl) is an oxidant known to be produced by neutrophils.
Human neutrophils were prepared as described by M. Markert, P. C. Andrews, and B. M. Babior Methods Enzymol. 105, 358 (1984). Following activation with phorbol myristate (1 μg/mL), the neutrophils (1.5×10^7 cells/mL) produced an oxidant species that oxidatively cleaves indigo carmine 1 to isatin sulfonic acid 2 (FIG. 19 and FIG. 20B). Hypochlorous acid (HOCI) is an oxidant that is known to be produced by neutrophils.

[1] = Long-term near-UV photo-production of H2O2 with catalase cycles; assay type: biochemical
Procedure: FIG. 8A illustrates the production of H2O2 by immunoglobulins and non-immunoglobulin proteins. Assays were performed by near-UV irradiation (312 nm, 800 μW cm^−2) of individual antibody/protein samples (100 μL, 6.7 μM) in phosphate-buffered saline (PBS) [10 mM sodium phosphate, 150 mM NaCl (pH 7.4)] in a sealed glass vial on a transilluminator (Fischer Biotech) under ambient aerobic conditions at 20EC. Aliquots (10 μL) were removed at timed intervals throughout the assay. H2O2 concentration was determined by the amplex red method. […]
FIG. 8B illustrates the long-term production of H2O2 by sheep poly-IgG (6.7 μM, 200 μL). […] H2O2 concentration was measured as described in FIG. 8A. […]
FIG. 8E illustrates the long-term inhibition of antibody photo-production of H2O2 by H2O2 and complete re-establishment of activity after removal of H2O2. […] H2O2 fo rmation throughout the assay was measured by the amplex red assay. […]
FIG. 11B provides the effect of chloride ion on antibody-mediated photo-production of H2O2. […] Aliquots (10 μL) were removed throughout the assay and the H2O2 concentration determined by the amplex red assay. […]

[2] = Hydrogen peroxide production by UV-irradiated antibody/protein (Amplex Red assay); assay type: biochemical; settings: UV irradiation in PBS
Procedure: Antibody/Protein Irradiation. Unless otherwise stated, the assay solution (100 μl, 6.7 μM protein in PBS, pH 7.4) was added to a glass vial, sealed with a screw-cap, and irradiated with either UV (312 nm, […] Fischer-Biotech transilluminator) or visible light.
Quantitative Assay for Hydrogen Peroxide. An aliquot (20 μl) from the protein solution was removed and added into a well of a 96-well microtiter plate (Costar) containing reaction buffer (80 μl). Working solution (100 μl/400 μM Amplex Red reagent ½ units/ml horseradish peroxidase) was then added, and the plate was incubated in the dark for 30 min. The fluorescence of the well components was then measured using a CytoFluor Multiwell Plate Reader (Series 4000, PerSeptive Biosystems, Framingham, Mass.; Ex/Em: 530/580 nm). The hydrogen peroxide concentration was determined using a standard curve. All experiments were run in duplicate, and the rate is quoted as the mean of at least two measurements.
Denaturation. IgG 19G12 (100 μl, 6.7 μM) was heated to 100EC in an Eppendorf tube for 2 min. The resultant solution was transferred to a glass, screw-cap vial and irradiated with UV light for 30 min. The concentration of H2O2 was determined after 30 min.

In the case of `CC1=C(CCC(=O)O)c2cc3[nH]c(cc4nc(cc5[nH]c(cc1n2)c(C)c5C(C)O)C(C)=C4C(C)O)c(C)c3CCC(=O)O` (stereo not drawn) [hematoporphyrin IX], the “bactericidal activity (in words)” value (E. coli) is reported as “negligible bactericidal activity”.

For `O=C1/C(=C2\Nc3ccc(S(=O)(=O)O)cc3C2=O)Nc2ccc(S(=O)(=O)O)cc21` [indigo carmine 1, indigo carmine], the “isatin sulfonic acid 2 formed” value (human neutrophils (PMNs)) was 25.1 ± 0.3 µM.

In the case of `N[C@@H](Cc1c[nH]c2ccccc12)C(=O)O` [tryptophan], the “production of H2O2 during near-UV irradiation” value ([1]; tryptophan 20 μM) is reported as “ca. 0.5 mole equivalents”.

For “bovine serum albumin: bovine serum albumin”, the “bactericidal activity (in words)” value (E. coli) was “no bacterial killing”.

With catalase the “protection against the bactericidal activity of non-specific antibodies” value (E. coli; catalase 13 mU/mL) was “complete protection; also recorded: completely attenuated the bactericidal activity”.

With “chick ovalbumin: chick-egg ovalbumin from Sigma” the “ability to reduce ^1O2 / generate H2O2 (in words)” value [2] was “one of the most efficient proteins at reducing ^1O2”.

For “superoxide dismutase: enzyme obtained from Sigma”, the “ability to reduce ^1O2 / generate H2O2 (in words)” value [2] was “the same as irradiation of PBS alone; also recorded: do not reduce ^1O2”.

With “β-galactosidase: enzyme from Sigma; most efficient non-immunoglobulin protein at H2O2 photo-production” the “H2O2 generated by photo-production” value ([1]; near-UV, from its 39 Trp residues) was 5.9 mol eq.

B1: RNase A: ribonuclease from Amersham Pharmacia (protein, UniProt P61823 27-150, looked up)
Ribonuclease pancreatic: KETAAAKFERQHMDSSTSAASSSNYCNQMMKSRNLTKDRCKPVNTFVHESLADVQAVCSQKNVACKNGQTNCYQSYSTMSITDCRETGSSKYPNCAYKTTQANKHIIVACEGNPYVPVHFDASV
With B1 the “ability to reduce ^1O2 / generate H2O2 (in words)” value [2] was “do not reduce ^1O2”.
